Results on 21 molecules are retold here after patent US20210292340A1, “CELL NECROSIS INHIBITOR, PREPARATION METHOD THEREFOR AND USE THEREOF” (SHANGHAI INSTITUTE OF ORGANIC CHEMISTRY, CHINESE ACADEMY OF …, priority 2018, published 2021).

By Ki is commonly meant a dissociation constant, usually derived from enzyme kinetics or from competition with a known ligand.

The first assay relates to Jurkat (FADD−/−) cells. Put plainly: Inhibition of TNF-induced programmed Jurkat (FADD−/−) cell necrosis (Cell Titer-Glo). Format: cell-based, human. Particulars: Homo sapiens, Jurkat, 20 h, TNF 10 ng/mL, intracellular ATP level, read-out: Cellular IC50 (M) Jurkat (FADD−/−). A digest of the protocol:
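FADD-knockout Jurkat cells (5×10^5/mL) preincubated with compound, then given TNF (final 10 ng/mL) for 20 h at 37 °C. ATP measured by Cell Titer-Glo luminescence, normalised to untreated DMSO wells as 100% viability; IC50 from duplicate wells.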
In general terms: In ATP-based viability assays light output follows the ATP content of the culture.
Take `CN1C(=O)[C@@H](NC(=O)c2cc(Cc3ccccc3)on2)COc2cc3occc3cc21` [RIP1-126]: the IC50 is 2.61e-09 M.

`CN1C(=O)[C@@H](NC(=O)c2nnc(Cc3ccccc3)[nH]2)COc2cc3occc3cc21` [RIP1-127]: the IC50 is 3.28e-09 M.

For the molecule `CN1C(=O)[C@@H](NC(=O)c2nnn(Cc3ccccc3)n2)COc2cc3nccnc3cc21` [RIP1-131], the IC50 worked out at 1.29e-09 M.

`CN1C(=O)[C@@H](NC(=O)c2noc(Cc3ccccc3)n2)COc2cc3nccnc3cc21` [RIP1-132]: the IC50 amounted to 4.57e-09 M.

As for `Cc1ccc(Cc2cc(C(=O)N[C@H]3COc4cc5nccnc5cc4N(C)C3=O)nn2C)cc1` [RIP1-133], the IC50 was 5.3e-08 M.

For the molecule `CN1C(=O)[C@@H](NC(=O)c2nnc(Cc3ccccc3)o2)COc2cc3nccnc3cc21` [RIP1-134], the IC50 was 9.03e-09 M.

For the molecule `CN1C(=O)[C@@H](NC(=O)c2nnc(Cc3ccccc3)[nH]2)COc2cc3nccnc3cc21` [RIP1-135], the IC50 was 4.25e-09 M.

Consider `CN1C(=O)[C@@H](NC(=O)c2ncn(Cc3ccccc3)n2)COc2cc3[nH]nnc3cc21` [RIP1-136], for which the IC50 worked out at 9.34e-09 M.

With `CN1C(=O)[C@@H](NC(=O)c2cn(Cc3ccccc3)cn2)COc2cc3[nH]nnc3cc21` [RIP1-137], the IC50 amounted to 7.31e-09 M.

With `CN1C(=O)[C@@H](NC(=O)c2cn(Cc3ccccc3)nn2)COc2cc3[nH]nnc3cc21` [RIP1-138], the IC50 was 1.68e-08 M.

Take `CN1C(=O)[C@@H](NC(=O)c2nnn(Cc3ccccc3)n2)COc2cc3[nH]nnc3cc21` [RIP1-139]: the IC50 came to 7.81e-10 M.

Turning to `CN1C(=O)[C@@H](NC(=O)c2noc(Cc3ccccc3)n2)COc2cc3[nH]nnc3cc21` [RIP1-140], the IC50 was 1.37e-09 M.

Take `CN1C(=O)[C@@H](NC(=O)c2cc(Cc3ccccc3)on2)COc2cc3[nH]nnc3cc21` [RIP1-142]: the IC50 is 1.86e-09 M.

As to `COc1ncnc2cc3c(cc12)N(C)C(=O)[C@@H](NC(=O)c1ncn(Cc2ccccc2)n1)CO3` [RIP1-145], the IC50 stood at 4.61e-10 M.

Turning to `COc1ncnc2cc3c(cc12)N(C)C(=O)[C@@H](NC(=O)c1n[nH]c(Cc2ccccc2)n1)CO3` [RIP1-146], the IC50 stood at 1.85e-09 M.

As to `COc1ncnc2cc3c(cc12)N(C)C(=O)[C@@H](NC(=O)c1cn(Cc2ccccc2)cn1)CO3` [RIP1-147], the IC50 was 1.69e-09 M.

`CN1C(=O)[C@@H](NC(=O)c2n[nH]c(Cc3cccc(F)c3)n2)COc2cc3ncoc3cc21` [RIP1-222]: the IC50 turned out to be 5.62e-09 M.

Staying with this assay, now noted: Homo sapiens, Jurkat, 20 h, read-out: Cellular IC50 (M) Jurkat (FADD−/−).
For the molecule `CN1C(=O)[C@@H](NC(=O)c2ncn(Cc3ccccc3)n2)COc2cc3[nH]nc(Cl)c3cc21` [RIP1-032], the IC50 came out at 2.4e-10 M.

With `Cc1nc2cc3c(cc2[nH]1)OC[C@H](NC(=O)c1cn(Cc2ccccc2)cn1)C(=O)N3C` [RIP1-067], the IC50 amounted to 6.72e-09 M.

For the molecule `CN1C(=O)[C@@H](NC(=O)c2nnc(Cc3ccccc3)[nH]2)COc2ccc3cnccc3c21` [RIP1-107], the IC50 turned out to be 1.07e-09 M.

`CN1C(=O)[C@@H](NC(=O)c2cn(Cc3ccccc3)nn2)COc2cc3occc3cc21` [RIP1-121]: the IC50 worked out at 1.37e-08 M.

The next assay concerns the target T1, human RIP1 (Homo sapiens, UniProt Q13546).
T1 construct: made in house; host or cells: Sf-9 insect cells
T1 sequence (Q13546 1-671): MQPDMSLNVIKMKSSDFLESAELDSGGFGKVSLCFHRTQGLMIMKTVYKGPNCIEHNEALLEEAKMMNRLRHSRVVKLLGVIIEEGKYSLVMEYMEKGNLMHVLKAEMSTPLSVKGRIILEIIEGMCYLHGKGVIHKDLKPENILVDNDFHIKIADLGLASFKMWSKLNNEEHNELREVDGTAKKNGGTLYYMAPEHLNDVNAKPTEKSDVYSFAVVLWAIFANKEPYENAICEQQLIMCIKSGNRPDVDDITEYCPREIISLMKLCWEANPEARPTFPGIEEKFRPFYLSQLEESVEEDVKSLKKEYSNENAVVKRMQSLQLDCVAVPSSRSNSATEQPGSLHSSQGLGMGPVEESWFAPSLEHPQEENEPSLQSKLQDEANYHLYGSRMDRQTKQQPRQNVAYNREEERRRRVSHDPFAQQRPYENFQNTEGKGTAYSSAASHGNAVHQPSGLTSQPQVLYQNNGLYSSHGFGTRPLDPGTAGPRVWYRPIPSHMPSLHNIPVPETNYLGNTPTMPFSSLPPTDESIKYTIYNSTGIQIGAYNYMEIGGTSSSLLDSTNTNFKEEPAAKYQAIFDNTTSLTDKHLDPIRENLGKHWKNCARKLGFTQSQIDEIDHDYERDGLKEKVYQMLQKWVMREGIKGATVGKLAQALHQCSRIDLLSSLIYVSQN
The assay can be described thus: Inhibition of ADP-Glo RIP1 kinase activity.
Conditions: not given
Format: biochemical. The protocol: The human RIP1 gene was transduced into Sf-9 insect cells, and the RIP1 protein was purified by Ni+ affinity chromatography and then by S-200 molecular sieve to remove the protein multimers. The obtained RIP1 protein was stored at −70° C., and the activity of the RIP1 protein in catalyzing autophosphorylation was detected by the ADP-Glo™ Kinase Activity Assay Kit (Promega) and the inhibitory activity of the drug against the RIP1 kinase was determined.
100 nL of the compound was transferred to a 384-well assay plate. Two replicate wells were set for each concentration of each drug.
The RIP1 enzyme solution and ATP solution were formulated in an assay buffer (containing 50 mM HEPES pH 7.5, 30 mM MgCl2, 50 mM NaCl, 1 mM DTT, 0.02% CHAPS, and 0.5 mg/ml BSA). Then, 5 μL of the RIP1 enzyme solution (final concentration 50 nM) was added to the assay plate and incubated at room temperature for 1 h. 5 μL of the ATP solution (final concentration 10 μM) was added to the assay plate, and incubate at room temperature for 4 h. Then 5 μL of ADP-Glo reagent was added to the assay plate, and incubated at room temperature for 60 min. 5 μL of a kinase assay solution was added to the assay plate, and incubated at room temperature for 30 min. After readout on Envision, the inhibition rate in each well was calculated from the full-activity well and the background well, and the Ki of the compound was calculated by GraphPad Prism 7 software (using the Morrision equation to fit the curve and calculate the Ki).
(In general: In ADP-Glo the light output rises with the ADP produced.)
`CN1C(=O)[C@@H](NC(=O)c2ncn(Cc3ccccc3)n2)COc2cc3[nH]nc(Cl)c3cc21` [RIP1-032] registered a Ki of 20.3 nM.

For `Cc1nc2cc3c(cc2[nH]1)OC[C@H](NC(=O)c1cn(Cc2ccccc2)cn1)C(=O)N3C` [RIP1-067], the affinity, expressed as Ki, was 28.6 nM.

In the case of `CN1C(=O)[C@@H](NC(=O)c2nnc(Cc3ccccc3)[nH]2)COc2ccc3cnccc3c21` [RIP1-107], the Ki turned out to be 8.9 nM.

Molecule `CN1C(=O)[C@@H](NC(=O)c2cn(Cc3ccccc3)nn2)COc2cc3occc3cc21` [RIP1-121] registered a Ki of 32.7 nM.

Turning to `CN1C(=O)[C@@H](NC(=O)c2cc(Cc3ccccc3)on2)COc2cc3occc3cc21` [RIP1-126], the inhibitory constant (Ki) was found to be 25.6 nM.

With `CN1C(=O)[C@@H](NC(=O)c2nnc(Cc3ccccc3)[nH]2)COc2cc3occc3cc21` [RIP1-127], the Ki was found to be 16.2 nM.

The molecule `CN1C(=O)[C@@H](NC(=O)c2nnn(Cc3ccccc3)n2)COc2cc3nccnc3cc21` [RIP1-131] displayed a Ki of 28.6 nM.

Regarding `CN1C(=O)[C@@H](NC(=O)c2noc(Cc3ccccc3)n2)COc2cc3nccnc3cc21` [RIP1-132], the Ki amounted to 19.3 nM.

Consider `Cc1ccc(Cc2cc(C(=O)N[C@H]3COc4cc5nccnc5cc4N(C)C3=O)nn2C)cc1` [RIP1-133], for which the affinity, expressed as Ki, was 23.1 nM.

Molecule `CN1C(=O)[C@@H](NC(=O)c2nnc(Cc3ccccc3)o2)COc2cc3nccnc3cc21` [RIP1-134] displayed a Ki of 21.9 nM.

The molecule `CN1C(=O)[C@@H](NC(=O)c2nnc(Cc3ccccc3)[nH]2)COc2cc3nccnc3cc21` [RIP1-135] registered a Ki of 21.5 nM.

With `CN1C(=O)[C@@H](NC(=O)c2ncn(Cc3ccccc3)n2)COc2cc3[nH]nnc3cc21` [RIP1-136], the Ki is 17.8 nM.

Molecule `CN1C(=O)[C@@H](NC(=O)c2cn(Cc3ccccc3)cn2)COc2cc3[nH]nnc3cc21` [RIP1-137] showed a Ki of 13.3 nM.

On to `CN1C(=O)[C@@H](NC(=O)c2cn(Cc3ccccc3)nn2)COc2cc3[nH]nnc3cc21` [RIP1-138], for which the inhibition constant (Ki) came to 19.8 nM.

Turning to `CN1C(=O)[C@@H](NC(=O)c2nnn(Cc3ccccc3)n2)COc2cc3[nH]nnc3cc21` [RIP1-139], the affinity, expressed as Ki, was 20.3 nM.

Regarding `CN1C(=O)[C@@H](NC(=O)c2noc(Cc3ccccc3)n2)COc2cc3[nH]nnc3cc21` [RIP1-140], the Ki was 50.6 nM.

In the case of `CN1C(=O)[C@@H](NC(=O)c2cc(Cc3ccccc3)on2)COc2cc3[nH]nnc3cc21` [RIP1-142], the affinity corresponds to a Ki of 19.1 nM.

In turn, `COc1ncnc2cc3c(cc12)N(C)C(=O)[C@@H](NC(=O)c1ncn(Cc2ccccc2)n1)CO3` [RIP1-145] returned a Ki of 10.5 nM.

`COc1ncnc2cc3c(cc12)N(C)C(=O)[C@@H](NC(=O)c1n[nH]c(Cc2ccccc2)n1)CO3` [RIP1-146] displayed an inhibitory constant (Ki) of 13.2 nM.

`COc1ncnc2cc3c(cc12)N(C)C(=O)[C@@H](NC(=O)c1cn(Cc2ccccc2)cn1)CO3` [RIP1-147] had a Ki of 16.5 nM.
